Data: patent US11008360B2, “Indoleacetic acid derivative and preparation method and pharmaceutical use thereof” (Institute of Chinese Materia Medica, China Academy of …, priority 2017, dated 2021)
Marks after values point to notes of the source that are not given here.

Tests used:
[1] = test system: tracheal phenol red excretion amount in mice; test: Phlegm-reducing effect (tracheal phenol red excretion); assay type: in vivo, Kunming mice; conditions: x ± s, n=16
Description: Test animals: Kunming mice (body weight 18-22 g, half male and half female), purchased from Beijing Vital River Laboratory Animal Technology Co., Ltd. Test reagent: Ammonium chloride (Guangzhou Chemical Reagent Factory). The devices were the same as in Test Example 1. According to the method of LI Yikui's phlegm-reducing test, the mice were fed normally for 3 days, and then randomly grouped into blank control group, compound of the present invention group, and ammonium chloride-positive control group. […] The phenol red excretion amount was calculated from the phenol red standard curve, and the significance of the difference between the groups was compared. Statistical method: data analysis of the experimental data was carried out with SPSS 10.0 statistical software, and t-test was used for comparison between groups.

[2] = test system: citric acid-induced cough in guinea pigs; test: Citric acid-induced cough test; assay type: in vivo; conditions: x ± s
Description: Test animals: Guinea pigs (body weight 180-220 g, half male and half female), purchased from Beijing Vital River Laboratory Animal Technology Co., Ltd.
(§1) Test reagent: Codeine phosphate (Europharm Laboratoires Co., Ltd.).
The devices are the same as in Test Example 1.
The guinea pigs were adaptively fed for 1 day followed by preliminary screening.
The guinea pigs were placed one by one in an inverted 5 L sealed glass bell jar, and treated by a constant pressure spray stimulation (17.5% citric acid solution) for one minute. The number of coughs within 5 minutes from the spray was recorded, and the guinea pigs which coughed more than 10 times were chosen as qualified test animals. The qualified guinea pigs were randomly grouped into blank control group, compound of the present invention group, and codeine phosphate-positive control group. The above groups were intragastrically administrated with the drugs according to body weight, and the blank control group was administrated with equal volume of distilled water. The intragastrical administration was carried out for five consecutive days. The guinea pigs were placed in an inverted 5 L sealed glass bell jar for one hour after the last administration, and treated by the nebulizer for 30 seconds. The latentperiod of the cough of the guinea pigs (the time from starting spraying of 17.5% citric acid to coughing starting) and the number of coughs within 5 minutes were observed.
(§2) Statistical method: data analysis of the experimental data was carried out with SPSS 10.0 statistical software, and t-test was used for comparison between groups.

[3] = test system: aqueous ammonia-induced cough in mice; test: Aqueous ammonia-induced cough test; assay type: in vivo, Kunming mice; conditions: x ± s, n=16
Description: Test animals: Kunming mice (body weight 18-22 g, half male and half female), purchased from Beijing Vital River Laboratory Animal Technology Co., Ltd., with Certificate No.: SCXK-(Beijing)2012-001.
as §1
Device: YC-Y800 Medical ultrasonic nebulizer (Beijing Yadu Technology Co., Ltd., with Beijing Pharmaceutical Supervision Certificate No.: Beijing 99 No. 223145); UV-2450 UV-visible spectrophotometer (Shimadzu Co., Japan); UX420S Animal balance (Shimadzu Co., Japan); and milli electronic balance (Sartorius Co., Germany).
The mice were adaptively fed for 3 days followed by screening. The ultrasonic nebulizer was preheated, and added with 40 ml of fresh aqueous ammonia solution (12.5%). The mice were placed in 1000 ml beaker. The beaker's mouth was sealed with a plastic wrap with two holes opened (one for inserting the ultrasonic atomizer outlet tube, and the other for ventilation). Ammonia was continuously introduced by the ultrasonic atomizer at its minimal power for 60 seconds, followed by stopping the ultrasonic atomizer immediately. The plastic wrap was quickly opened to allow the ammonia to diffuse naturally. Mice which coughed for less than 10 times or more than 80 times within three minutes were excluded. The qualified mice were randomly grouped into blank control group, compound of the present invention group, and codeine phosphate-positive control group. The above groups were intragastrically administrated with the drugs according to body weight, and the blank control group was administrated with equal volume of distilled water. The administration was carried out once a day for five consecutive days. The mice were placed one by one in an inverted 5 L sealed glass bell jar for one hour after the last administration, and treated by a constant pressure ammonia spray stimulation for 15 seconds (10 mL of ammonia spray/time for one mouse, and changed each time). After the stimulation stopped, the mice were taken out to observe the latentperiod of the cough of the mice (the time from spraying starting to coughing starting) and the number of coughs within 2 minutes (cough was identified by severely contracting the abdominal muscles and opening the mouth, with a slight cough sound sometimes).
as §2

[4] = 20 mg·kg^-1 intragastric for five days, phenol red i.p. 30 min after last administration
[5] = 20 mg·kg^-1 intragastric for five days, 17.5% citric acid spray 1 h after last administration
[6] = 20 mg·kg^-1 intragastric once a day for five days, ammonia spray 1 h after last administration
[7] = positive control dose 15 mL·kg^-1 intragastric once a day for five days

Compound | Tracheal phenol red excretion amount [1, 4] | Latentperiod [2, 5] [s] | Latentperiod [3, 6] [s] | Number of coughs [3, 6] [times/2 min] | Latentperiod ([2]; positive control dose 15 mL·kg^-1 intragastric for five days, n=18) [s] | Latentperiod [3, 7] [s] | Number of coughs [3, 7] [times/2 min] | Tracheal phenol red excretion amount ([1]; positive control dose 1000 mg·kg^-1 intragastric for five days) [mg/L]
O=C(O)C[C@@H](NC(=O)Cc1cn([C@@H]2O[C@H](CO)[C@@H](O)[C@H](O)[C@H]2O)c2ccccc12)C(=O)O [Compound 1, (2-(1-((2R,3R,4S,5S,6R)-3,4,5-trihydroxy-6-(hydroxymethyl)tetrahydro-2H-pyran-2-yl)-1H-indol-3-yl)acetyl)-D-aspartic acid] | 1.125 ± 0.129 mg/L | 147 ± 89 | 45.8 ± 8.2 | 19.1 ± 10.7 | – | – | – | –
Cc1ccc2c(c1)c(CC(=O)N[C@H](CCC(=O)O)C(=O)O)cn2[C@@H]1O[C@H](CO)[C@@H](O)[C@H](O)[C@H]1O [Compound 9] | 1.089 ± 0.139**^1 mg · L^−1 | 121 ± 47 | 38.1 ± 4.7 | 23.8 ± 5.1 | – | – | – | –
COc1ccc2c3c1O[C@H]1[C@@H](O)C=C[C@H]4[C@@H](C2)N(C)CC[C@@]341 [Codeine phosphate, reference compound] | – | – | – | – | 107 ± 41 | 48.3 ± 5.9 | 14.2 ± 6.5 | –
O=C(O)C[C@@H](NC(=O)Cc1cn([C@@H]2O[C@H](CO)[C@@H](O)[C@H](O)[C@H]2O)c2ccc(Br)cc12)C(=O)O [Compound 6, (2-(5-bromo-1-((2R,3R,4S,5S,6R)-3,4,5-trihydroxy-6-(hydroxymethyl)tetrahydro-2H-pyran-2-yl)-1H-indol-3-yl)acetyl)-D-aspartic acid] | 0.888 ± 0.145 mg/L | 127 ± 52 | 40.7 ± 5.2 | 21.8 ± 7.3 | – | – | – | –
COc1cccc2c(CC(=O)N[C@H](CC(=O)O)C(=O)O)cn([C@@H]3O[C@H](CO)[C@@H](O)[C@H](O)[C@H]3O)c12 [Compound 8] | 1.142 ± 0.132 mg/L | 110 ± 32 | 39.6 ± 5.5 | 19.2 ± 4.7 | – | – | – | –
O=C(O)CC[C@@H](NC(=O)Cc1cn([C@@H]2O[C@H](CO)[C@@H](O)[C@H](O)[C@H]2O)c2ccccc12)C(=O)O [Compound 2, (2-(1-((2R,3R,4S,5S,6R)-3,4,5-trihydroxy-6-(hydroxymethyl)tetrahydro-2H-pyran-2-yl)-1H-indol-3-yl)acetyl)-D-glutamic acid] | 0.988 ± 0.211 mg/L | 98 ± 59 | 48.5 ± 9.4 | 17.3 ± 4.6 | – | – | – | –
COc1ccc2c(c1)c(CC(=O)N[C@H](CC(=O)O)C(=O)O)cn2[C@@H]1O[C@H](CO)[C@@H](O)[C@H](O)[C@H]1O [Compound 4] | 1.072 ± 0.221 mg/L | 120 ± 55 | 40.3 ± 5.5 | 18.5 ± 4.3 | – | – | – | –
Cc1cccc2c(CC(=O)N[C@H](CC(=O)O)C(=O)O)cn([C@@H]3O[C@H](CO)[C@@H](O)[C@H](O)[C@H]3O)c12 [Compound 7] | 0.956 ± 0.270 mg/L | 130 ± 22 | 42.1 ± 7.2 | 18.6 ± 8.5 | – | – | – | –
O=C(O)CC[C@@H](NC(=O)Cc1cn([C@@H]2O[C@H](CO)[C@@H](O)[C@H](O)[C@H]2O)c2ccc(Cl)cc12)C(=O)O [Compound 10] | 0.962 ± 0.101 mg/L | 139 ± 41 | 39.4 ± 4.1 | 19.4 ± 6.3 | – | – | – | –
Cc1ccc2c(c1)c(CC(=O)N[C@H](CC(=O)O)C(=O)O)cn2[C@@H]1O[C@H](CO)[C@@H](O)[C@H](O)[C@H]1O [Compound 3, (2-(5-methyl-1-((2R,3R,4S,5S,6R)-3,4,5-trihydroxy-6-(hydroxymethyl)tetrahydro-2H-pyran-2-yl)-1H-indol-3-yl)acetyl)-D-aspartic acid] | 0.971 ± 0.114 mg/L | 128 ± 65 | 38.1 ± 5.3 | 20.7 ± 5.2 | – | – | – | –
Cl.N [Ammonium chloride, reference compound] | – | – | – | – | – | – | – | 1.068 ± 0.224
O=C(O)C[C@@H](NC(=O)Cc1cn([C@@H]2O[C@H](CO)[C@@H](O)[C@H](O)[C@H]2O)c2ccc(Cl)cc12)C(=O)O [Compound 5, (2-(5-chloro-1-((2R,3R,4S,5S,6R)-3,4,5-trihydroxy-6-(hydroxymethyl)tetrahydro-2H-pyran-2-yl)-1H-indol-3-yl)acetyl)-D-aspartic acid] | 0.831 ± 0.107 mg/L | 110 ± 32 | 42.6 ± 11.2 | 19.6 ± 5.1 | – | – | – | –
